Structures are written as SMILES.

This assay concerns the target T1, Monoamine oxidase (Rattus norvegicus, UniProt P19643+P21396).
T1 sequence (P19643 whole entry): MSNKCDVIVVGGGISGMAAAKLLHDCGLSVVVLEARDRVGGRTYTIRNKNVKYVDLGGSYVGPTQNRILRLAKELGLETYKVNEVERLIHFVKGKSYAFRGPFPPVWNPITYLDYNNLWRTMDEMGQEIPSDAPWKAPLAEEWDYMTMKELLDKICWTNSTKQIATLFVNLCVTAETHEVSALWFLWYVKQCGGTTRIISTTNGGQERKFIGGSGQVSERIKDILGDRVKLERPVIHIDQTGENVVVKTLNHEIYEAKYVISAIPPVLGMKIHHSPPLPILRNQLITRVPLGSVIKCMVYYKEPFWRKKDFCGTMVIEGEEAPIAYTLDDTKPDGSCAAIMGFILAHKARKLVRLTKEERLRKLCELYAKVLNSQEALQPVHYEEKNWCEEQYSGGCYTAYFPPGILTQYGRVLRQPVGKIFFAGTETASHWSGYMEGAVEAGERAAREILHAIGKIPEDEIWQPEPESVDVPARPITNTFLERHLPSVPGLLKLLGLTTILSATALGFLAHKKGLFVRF
T1 sequence (P21396 whole entry): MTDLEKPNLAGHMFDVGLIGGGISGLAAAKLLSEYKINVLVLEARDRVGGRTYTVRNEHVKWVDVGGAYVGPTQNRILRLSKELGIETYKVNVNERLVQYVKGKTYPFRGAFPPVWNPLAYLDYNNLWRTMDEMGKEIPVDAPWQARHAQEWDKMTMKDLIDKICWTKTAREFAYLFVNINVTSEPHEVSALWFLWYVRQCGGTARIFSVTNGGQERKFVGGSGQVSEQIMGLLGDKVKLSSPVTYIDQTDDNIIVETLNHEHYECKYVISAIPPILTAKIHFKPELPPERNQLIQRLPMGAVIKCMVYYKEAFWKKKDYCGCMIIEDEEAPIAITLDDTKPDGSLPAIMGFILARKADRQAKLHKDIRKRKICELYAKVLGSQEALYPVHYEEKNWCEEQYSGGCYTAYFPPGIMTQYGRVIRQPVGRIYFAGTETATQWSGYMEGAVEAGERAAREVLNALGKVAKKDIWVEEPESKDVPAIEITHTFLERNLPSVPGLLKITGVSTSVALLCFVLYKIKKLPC
As to the kind of experiment: Inhibitory activity against rat brain mitochondrial Monoamine oxidase.
In turn, `Cl.NC/C(=C/F)c1cccc(C(F)(F)F)c1` yielded an IC50 of 7 nM. That is a single-digit nanomolar value.

`C=C(CN)c1ccccc1.Cl` showed an IC50 of 400000 nM. Compared with the last molecule, the IC50 is about 57000-fold higher.

As to `Cl.NC/C(=C/F)c1ccc(Cl)cc1`, the IC50 came to 20 nM. In turn, `Cl.NCC(=C(Br)Br)c1ccccc1` came in with an IC50 of 500000 nM. Consider `COc1ccc(/C(=C\F)CN)cc1OC.Cl`, for which half-maximal inhibition (IC50) required 25 nM. The same measure for `Cl.NC/C(=C\Cl)c1ccccc1`: 500000 nM. The same measure for `Cl.NC/C(=C/Br)c1ccccc1`: 40000 nM; for `Cl.NC/C(=C/F)c1ccc(O)c(O)c1`: 100 nM; for `Cc1ccc(/C(=C\F)CN)cc1.Cl`: 10 nM. `Cl.NC/C(=C/F)c1cccc(O)c1` had an IC50 of 50 nM. With `Cl.NCC(=C(F)F)c1ccccc1` the figure was 10000 nM; with `Cl.NC/C(=C/F)c1ccccc1`, 18 nM; with `Cl.NC/C(=C/Cl)c1ccccc1`, 100000 nM.

Turning to `COc1ccccc1/C(=C\F)CN.Cl`, the midpoint of inhibition, the IC50, lay at 25 nM. The molecule `Cl.NC/C(=C\F)c1ccccc1` showed a concentration for half-maximal inhibition (IC50) of 150 nM. For the molecule `COc1cccc(/C(=C\F)CN)c1.Cl`, the IC50 was 5 nM. For `C=CCN` [ALLYLAMINE], the IC50 was 500000 nM.

The values are drawn from ChEMBL document CHEMBL1123104, “Enzyme-activated irreversible inhibitors of monoamine oxidase: phenylallylamine structure-activity relationships” (J Med Chem, 1985).
